Assay results taken from ChEMBL document CHEMBL1145989, “Development of a water-soluble matrix metalloproteinase inhibitor as an intra-arterial infusion drug for prevention of restenosis after angioplasty” (J Med Chem, 2003).

Legend:
[1] = biological target: Matrix metalloproteinase-9 (Homo sapiens, UniProt P14780); experiment: Inhibition of human Matrix metalloprotease-9 (MMP-9)
[2] = biological target: 72 kDa type IV collagenase (Homo sapiens, UniProt P08253); experiment: Inhibition of human Matrix metalloprotease-2 (MMP-2)
[3] = biological target: Macrophage metalloelastase (Homo sapiens, UniProt P39900); experiment: Inhibition of human Matrix metalloprotease-12 (MMP-12)
Chain of Macrophage metalloelastase (P39900 whole entry): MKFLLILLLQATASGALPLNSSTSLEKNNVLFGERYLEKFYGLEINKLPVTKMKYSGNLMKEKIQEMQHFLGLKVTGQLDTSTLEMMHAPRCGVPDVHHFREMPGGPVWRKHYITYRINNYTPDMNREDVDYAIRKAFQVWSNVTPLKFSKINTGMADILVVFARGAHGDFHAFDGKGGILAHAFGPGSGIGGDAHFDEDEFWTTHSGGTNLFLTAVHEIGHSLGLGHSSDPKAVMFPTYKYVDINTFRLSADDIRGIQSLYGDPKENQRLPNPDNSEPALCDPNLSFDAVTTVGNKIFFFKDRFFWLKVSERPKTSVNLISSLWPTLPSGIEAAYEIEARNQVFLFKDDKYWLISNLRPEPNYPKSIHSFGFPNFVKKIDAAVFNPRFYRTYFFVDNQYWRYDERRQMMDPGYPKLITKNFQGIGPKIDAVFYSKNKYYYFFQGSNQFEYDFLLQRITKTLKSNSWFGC

Chain of 72 kDa type IV collagenase (P08253 whole entry): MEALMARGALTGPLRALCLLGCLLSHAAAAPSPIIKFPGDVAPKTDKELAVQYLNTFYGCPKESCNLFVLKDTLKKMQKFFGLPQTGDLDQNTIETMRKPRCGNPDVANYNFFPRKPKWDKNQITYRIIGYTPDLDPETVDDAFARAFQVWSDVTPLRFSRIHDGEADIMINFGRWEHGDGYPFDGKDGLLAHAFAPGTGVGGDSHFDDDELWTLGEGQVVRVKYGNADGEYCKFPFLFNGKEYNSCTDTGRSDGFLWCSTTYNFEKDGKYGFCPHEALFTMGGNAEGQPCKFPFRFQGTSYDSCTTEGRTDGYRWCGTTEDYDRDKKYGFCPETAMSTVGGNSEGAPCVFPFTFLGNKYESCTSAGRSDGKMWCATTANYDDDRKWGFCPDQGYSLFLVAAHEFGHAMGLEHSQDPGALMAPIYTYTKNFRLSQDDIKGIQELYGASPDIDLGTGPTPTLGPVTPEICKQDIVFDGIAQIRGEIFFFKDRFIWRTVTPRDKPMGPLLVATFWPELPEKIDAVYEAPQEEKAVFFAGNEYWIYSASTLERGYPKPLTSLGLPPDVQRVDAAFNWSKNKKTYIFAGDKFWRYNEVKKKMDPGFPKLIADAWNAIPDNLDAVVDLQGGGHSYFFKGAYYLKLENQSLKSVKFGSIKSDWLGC
Chain of Matrix metalloproteinase-9 (P14780 whole entry): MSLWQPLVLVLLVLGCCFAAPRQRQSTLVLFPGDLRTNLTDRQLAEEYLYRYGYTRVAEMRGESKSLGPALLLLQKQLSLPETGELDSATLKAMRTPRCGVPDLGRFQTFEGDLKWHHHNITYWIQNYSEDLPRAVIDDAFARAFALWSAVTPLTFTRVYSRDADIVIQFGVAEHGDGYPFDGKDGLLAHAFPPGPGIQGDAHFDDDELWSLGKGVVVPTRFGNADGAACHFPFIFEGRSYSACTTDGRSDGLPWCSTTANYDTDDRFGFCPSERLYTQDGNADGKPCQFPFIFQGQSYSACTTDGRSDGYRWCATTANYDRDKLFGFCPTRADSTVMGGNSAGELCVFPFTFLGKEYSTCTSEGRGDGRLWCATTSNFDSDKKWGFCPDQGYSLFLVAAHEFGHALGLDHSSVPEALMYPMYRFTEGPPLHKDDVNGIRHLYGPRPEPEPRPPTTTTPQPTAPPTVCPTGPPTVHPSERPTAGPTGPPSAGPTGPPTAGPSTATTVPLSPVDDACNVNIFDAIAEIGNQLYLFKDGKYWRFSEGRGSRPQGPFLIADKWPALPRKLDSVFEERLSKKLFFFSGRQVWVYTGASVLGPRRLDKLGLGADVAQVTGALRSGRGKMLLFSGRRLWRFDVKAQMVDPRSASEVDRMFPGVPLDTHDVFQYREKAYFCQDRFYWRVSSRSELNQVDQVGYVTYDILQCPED

IC50 [1]	IC50 [2]	IC50 [3]	SMILES
0.8 nM	0.65 nM	3.5 nM	C[C@@H](C[C@@H](CO)NC(=O)c1ccc(Oc2ccccc2)cc1)C(=O)NO
2.8 nM	1.1 nM	2.6 nM	C[C@@H](C[C@@H](COC(=O)CCC(=O)O)NC(=O)c1ccc(Oc2ccccc2)cc1)C(=O)NO
